Data as given in paper PMC5786060, “Discovery of new molecular entities able to strongly interfere with Hsp90 C-terminal domain” (Scientific Reports, 2018).
Like-named read-outs stand apart in the source and are kept apart here.

Key:
[1] = test system: Jurkat (human leukemic T lymphocyte); experiment: Anti-proliferation MTT assay, Jurkat cells; assay type: cell-based; details: for IC50: Homo sapiens
Protocol: (§1) Jurkat and U937 (2 × 10^4 /well) cells were seeded in triplicate in 96 well−plates and incubated for the 24 h or 48 h in the absence or presence of different concentrations of compounds 1, 4–5, 7–15, 21–22, 26 (concentration between 10 µM to 100 µM) or Novobiocin (concentration between 50 µM to 500 µM). Stock solutions of compounds (100 mM in DMSO) were diluted just before addition to the sterile culture medium and the final concentration of DMSO was 0.15% (v/v).
(§2) The number of viable cells was determined by using a […] (MTT, Sigma-Aldrich) conversion assay, according to the method described by Terracciano et al. 2016[27],[28]. After the indicated treatment, the cells were incubated for additional 3 h at 37 °C, with 25 µL of MTT (5 mg/mL in PBS). The formazan crystals thus formed were dissolved in 100 μl of buffer containing 50% (v/v) N,N-dimethylformamide, 20% SDS (pH 4.5). The absorbance was read at 570 nm using an Absorbance Microplate Reader (Titertek multiskan MCC7340, LabSystems, Vienna, VA, USA) equipped with a 620 nm filter. The cell population growth inhibition was also tested by cytometric counting (trypan blu exclusion). IC50 values were calculated from cell viability dose−response curves and defined as the concentration resulting in 50% inhibition of cell survival, compared to control cells treated with DMSO (see Supplementary Material Tables S2 and S3).

[2] = test system: U937 (human monocytic cell line from histiocytic lymphoma); experiment: Anti-proliferation MTT assay, U937 cells; assay type: cell-based; details: for IC50: Homo sapiens
Protocol: as §1, §2

recombinant human Hsp90α = target: T1, recombinant human Hsp90α (Homo sapiens, UniProt P07900); experiment: SPR binding to immobilized recombinant Hsp90α; details: Biacore 3000, immobilized full length Hsp90α, 25 °C, 1:1 Langmuir model, read-out: KD (nM) ± SD
T1 construct: purchased Abcam
Protocol: Recombinant human Hsp90α was purchased from Abcam (Abcam, Cambridge, UK). […] SPR analyses were carried out according to our previously published data[25]–[28],[32],[50]. Surface Plasmon Resonance Spectroscopy (SPR) analyses were performed to determine binding of various molecules to full length Hsp90α using a Biacore 3000 optical biosensor equipped with research-grade CM5 sensor chips (GE Healthcare). Hsp90α was coupled to the surface of a CM5 sensor chip using standard amine-coupling protocols, according to the manufacturer’s instructions.
The protein (100 µg mL^−1 in 10 mM CH3COONa, pH 5.0) was immobilized on individual sensor chip surfaces at a flow rate of 5 µL min^−1 to obtain densities of 8–12 kRU. For the experiments a recombinant Hsp90α surface, a BSA surface and one unmodified reference surface were prepared for simultaneous analyses. […] For each molecule a six-point concentration series were set up, spanning […], and for each sample the complete binding study was performed using triplicate aliquots. Changes in mass, due to the binding response, were recorded as resonance units (RU). To obtain the dissociation constant (KD) (Table 1), these responses were fit to a 1:1 Langmuir binding model by nonlinear regression using the BiaEvaluation software program provided by GE Healthcare. Simple interactions were suitably fitted to a single-site bimolecular interaction model (A + B = AB), yielding a single KD. (Table 1). SPR experiments were performed at 25 °C, using a flow rate of 50 µL min^−1, with 60 s monitoring of association and 300 s monitoring of dissociation.

[3] = test system: Hsp90-dependent client proteins Raf-1, p-Akt, p-Erk and p53; Hsc70, Hsp90, Hsp70 in Jurkat cells; experiment: Western blot of Hsp90 client proteins and heat shock proteins; assay type: cell-based, human; details: 24 h; for degradation of Hsp90-dependent client proteins Raf-1, p-Akt, p-Erk and p53 / reduction of Hsc70: 25 and 50 µM, western blot densitometry
Protocol: Following the treatment, the cells were trypsinized and homogenized on ice in RIPA lysis buffer (50 mM Hepes, 10 mM EDTA, 150 mM NaCl, 1% NP-40, 0.5% sodium deoxycholate, 0.1% SDS, pH 7.4), supplemented with protease inhibitors cocktail (Sigma-Aldrich). After centrifugation at 4 °C to removed cell debris, an equal protein amount (40 µg) was separated by SDS-PAGE under denatured reducing conditions and was then transferred to nitrocellulose membranes. The blots were blocked with 3% BSA and were incubated at 4 °C overnight with primary antibodies: anti-Hsp 70; anti-Hsp 90α/ß, anti-Raf1, anti-pAkt, anti Erk, anti pErk, anti-p53, anti Hsc70, anti GRP94, anti cyclin A antibodies (Santa Cruz Biotechnology, Inc., Delaware, CA, USA), anti-actin antibody (Sigma-Aldrich) anti CDK2, anti Cyclin D1 and anti CDK4 antibodies (Cell Signaling Technology, Leiden, Netherlands). Appropriate peroxidase-conjugate secondary antibodies were used to detect primary antibodies, and enzymatic signals were visualized by chemiluminescence reagent Pierce ECL (Thermo Scientific, Rockford, IL, USA). Quantitative densitometry analyses were performed using a ImageQuant LAS 4000 system (GE Healthcare Life Sciences,NY, USA).

[4] = test system: PHA-stimulated human peripheral blood mononuclear cells (PBMC); experiment: Cytotoxicity on PHA-stimulated PBMC by trypan blue count; assay type: cell-based; details: 25 µM, DMSO control about 5 ± 0.9%
Protocol: Human peripheral blood mononuclear cells (PBMC), induced to proliferate by phytohemagglutinin (PHA) (10 µg/ml), were used to evaluate cytotoxic effects by trypan blue count of compound 7 and 10. Human peripheral blood mononuclear cells (PBMC) were isolated from buffy coats of healthy donors (kindly provided by the Blood Center of the Hospital of Battipaglia, Salerno, Italy) by using standard Ficoll−Hypaque gradients.

Jurkat cells = experiment: Cell cycle distribution / hypodiploid cells by PI flow cytometry; assay type: cell-based, human; details: for hypodiploid cells (subG0/G1 DNA content): 100 µM; for hypodiploid cells: 200 µM
Protocol: Cell DNA content was measured by propidium iodide (PI) incorporation into permeabilized cells, as described by Nicoletti et al. Briefly, the Jurkat cells were treated for 24 h or 48 h with compounds used at the different concentrations. In particular, the compounds 7 or 10 were used at 25 or 50 µM, novobiocin was used at 50, 100 or 200 µM. The treated cells were harvested and incubated with a PI solution (0.1% sodium citrate, 0.1% Triton X-100 and 50 μg/ml of prodium iodide, Sigma-Aldrich, 10 μg/ml Rnase A) for 30 min at room temperature.
The cells were analyzed using FACScalibur flow cytometry (Becton Dickinson, San Josè, CA. The distribution of cells in cell cycle phases was determined using ModFit LT analysis software (Becton Dickinson). The percentage of apoptotic cells is represented as the percentage of hypodiploid cells accumulated at the sub G0/G1 phase of the cell cycle and was quantified using the CellQuest software (Becton Dickinson). Results were expressed as a mean ± SD of three experiments performed in triplicate.

[5] = U-937, 24 h, read-out: IC50 (µM) 24h
[6] = U-937, 48 h, read-out: IC50 (µM) 48h

| IC50 ([1]; 24 h, read-out: IC50 (µM) 24h) [µM] | IC50 ([1]; 48 h, read-out: IC50 (µM) 48h) [µM] | IC50 [2, 5] [µM] | IC50 [2, 6] [µM] | Kd (recombinant human Hsp90α) [nM] | Compound | further results |
| --- | --- | --- | --- | --- | --- | --- |
| 100 | 98.3 | 91.2 | 91.2 | 14.7 ± 9.4 | Cc1cc(C)c2c(C)cc3nnc(SCCCN4C(=O)c5ccccc5C4=O)n3c2c1 [Compound 5] |  |
|  |  |  |  | 13.2 ± 2.3 | COc1cc(/C=N/NC(=O)NC(=O)c2ccccc2Cl)ccc1O [Compound 21] | IC50 (µM) 24h ([1]; 24 h): not active; IC50 (µM) 48h ([1]; 48 h): not active; IC50 (µM) 24h [2]: not active; IC50 (µM) 48h [2]: not active |
| > 100 | > 100 | > 100 | > 100 | 1.5 ± 0.5 | NC(=O)c1ccccc1NC(=O)CCCCCN1C(=O)c2ccccc2C1=O [Compound 1] |  |
| 26.1 | 23.5 | 52 | 50 | 20.8 ± 8.7 | O=C(CCCCCn1c(=O)[nH]c2ccccc2c1=O)Nc1ccc(Br)cc1F [Compound 10] | degradation of Hsp90-dependent client proteins Raf-1, p-Akt, p-Erk and p53 [3]: 50–60%; reduction of Hsc70 [3]: 15–20%; non-viable cells percentage ([4]; 24 h): about 7 ± 1.3%; non-viable cells percentage ([4]; 48 h): ~9 ± 1.8%; hypodiploid cells (subG0/G1 DNA content) (Jurkat cells; 48 h): 10%; cell cycle phase in which cells are arrested (Jurkat cells; after 24 h, retained after 48 h): S phase |
| 25.1 | 22 | 51.2 | 51 | 5.2 ± 3.8 | COc1ccc(NCC(=O)Nc2ncc(Cc3ccc(Cl)c(Cl)c3)s2)cc1 [Compound 7] | degradation of Hsp90-dependent client proteins Raf-1, p-Akt, p-Erk and p53 [3]: 50–60%; reduction of Hsc70 [3]: 15–20%; non-viable cells percentage ([4]; 24 h): about 6 ± 1.8%; non-viable cells percentage ([4]; 48 h): ~8 ± 1.5%; hypodiploid cells (subG0/G1 DNA content) (Jurkat cells; 48 h): 10% |
| > 100 | > 100 | > 100 | > 100 | 260 ± 8.4 | NC(=O)c1ccc(NC(=O)CCCCCn2c(=O)[nH]c3ccccc3c2=O)cc1 [Compound 14] |  |
| 90.2 | 85.5 | 97.3 | 95.3 | 20.9 ± 9.5 | COc1ccc(NCC(=O)Nc2ncc(Cc3cccc4ccccc34)s2)cc1 [Compound 9] |  |
| 56.8 | 54 | 98.3 | 97 | 300 ± 19.3 | COC(=O)c1ccc(NC(=O)CCCCCn2c(=O)[nH]c3ccccc3c2=O)cc1 [Compound 13] |  |
| > 100 | > 100 | > 100 | > 100 | 3.2 ± 1.1 | O=C1c2ccccc2C(=O)N1CCSc1ncnc2scc(-c3ccc(Cl)cc3)c12 [Compound 4] |  |
|  |  |  |  | 2.4 ± 0.6 | O=C(CNc1ccc(F)cc1)Nc1ncc(Cc2ccccc2F)s1 [Compound 8] | IC50 (µM) 24h ([1]; 24 h): not active; IC50 (µM) 48h ([1]; 48 h): not active; IC50 (µM) 24h [2]: not active; IC50 (µM) 48h [2]: not active |

The remaining lines, values behind:

| Compound | IC50 ([1]; 24 h, read-out: IC50 (µM) 24h) [µM] | IC50 ([1]; 48 h, read-out: IC50 (µM) 48h) [µM] | IC50 [2, 5] [µM] | IC50 [2, 6] [µM] | Kd (recombinant human Hsp90α) [nM] | further results |
| --- | --- | --- | --- | --- | --- | --- |
| O=C1CCS(=O)(=O)N1c1ccc(S(=O)(=O)NCc2cccc3c2OCO3)cc1 [Compound 15] |  |  |  |  | 4.8 ± 2.9 | IC50 (µM) 24h ([1]; 24 h): not active; IC50 (µM) 48h ([1]; 48 h): not active; IC50 (µM) 24h [2]: not active; IC50 (µM) 48h [2]: not active |
| COC(=O)c1ccc(Oc2c[nH]nc2-c2ccc(OC)cc2O)cc1 [Compound 20] |  |  |  |  | 14.2 ± 4.9 |  |
| O=C(CCCCCn1c(=O)[nH]c2ccccc2c1=O)CCCn1ccnc1 [Compound 11] | 48.2 | 42.5 | 90.1 | 90.3 | 79.3 ± 7.2 |  |
| O=C(c1ccc2c(c1)OCO2)N1CCC(c2nc3ccccc3[nH]2)CC1 [Compound 26] | > 100 | > 100 | > 100 | > 100 | 25.7 ± 8.4 |  |
| O=C(CCCCCn1c(=O)[nH]c2ccccc2c1=O)NCCN1CCOCC1 [Compound 12] | > 100 | > 100 | > 100 | > 100 | 95.1 ± 5.7 |  |
| CN(CCc1ccncc1)C(=O)c1ccc(N2C(=O)CCS2(=O)=O)cc1 [Compound 22] |  |  |  |  | 4.1 ± 2.6 | IC50 (µM) 24h ([1]; 24 h): not active; IC50 (µM) 48h ([1]; 48 h): not active; IC50 (µM) 24h [2]: not active; IC50 (µM) 48h [2]: not active |
| C=CCNC1=C2C[C@@H](C)C[C@H](OC)[C@H](O)[C@@H](C)/C=C(\C)[C@H](OC(N)=O)[C@@H](OC)/C=C\C=C(/C)C(=O)NC(=CC1=O)C2=O [Compound 17-AAG, 17-(Allylamino)-17-demethoxygeldanamycin, reference compound] |  |  |  |  |  | effect on Hsp90 and Hsp70 protein levels (heat shock response) ([3]; 17-AAG 2 µM, compounds 25 and 50 µM): significant up-regulation of Hsp90 and Hsp70 expression levels |
| CO[C@@H]1[C@@H](OC(N)=O)[C@@H](O)[C@H](Oc2ccc3c(O)c(NC(=O)c4ccc(O)c(CC=C(C)C)c4)c(=O)oc3c2C)OC1(C)C [Novobiocin, reference compound] | 171 | 150 | 232 | 190 |  | hypodiploid cells (Jurkat cells; 24 h): 14%; hypodiploid cells (Jurkat cells; 48 h): 30%; effect on cell cycle progression (Jurkat cells; 50 and 100 µM, 24 or 48 h): did not affect cell cycle progression |
